Columns and labels:
Assay in all cases: drug sensitivity score (DSS2, normalised partial AUC of dose-response, 72 h CellTiter-Glo viability) (DSS (dimensionless)); higher = more sensitive (stronger growth inhibition / cytotoxicity); extreme values may be limits of the assay
CAF#6 = system: CAF#6 (primary prostate cancer-associated fibroblasts of iCAF-like type)
Outline: (§1)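 Low-passage primary prostate cancer-associated fibroblasts, PF179T, WPMY-1, LNCaP and 22Rv1 cells were seeded into 384-well plates carrying pre-dispensed compounds at five doses covering a 10,000-fold range. After 72 h, viability was read by CellTiter-Glo 2.0 luminescence. Responses were scaled to vehicle and positive-control wells. The drug sensitivity score (DSS2) is a partial area under the fitted logistic dose–response curve divided by the log of its upper asymptote, computed in BREEZE; higher means more sensitive.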

CAF#4 = system: CAF#4 (primary prostate cancer-associated fibroblasts of iCAF-like type)
Outline: as §1

CAF#3 = system: CAF#3 (primary prostate cancer-associated fibroblasts of myCAF-like type)
Outline: as §1

CAF#7 = system: CAF#7 (primary prostate cancer-associated fibroblasts of myCAF-like type)
Outline: as §1

CAF#5 = system: CAF#5 (primary prostate cancer-associated fibroblasts of myCAF-like type)
Outline: as §1

CAF#2 = system: CAF#2 (primary prostate cancer-associated fibroblasts of iCAF-like type)
Outline: as §1

LNCAP = system: LNCAP
Outline: as §1

22Rv1 = system: 22Rv1
Outline: as §1

CAF#1 = system: CAF#1 (primary prostate cancer-associated fibroblasts of myCAF-like type)
Outline: as §1

WPMY-1 = system: WPMY-1
Outline: as §1

PF179T = system: PF179T
Outline: as §1

Compound | drug sensitivity score (CAF#6) | drug sensitivity score (CAF#4) | drug sensitivity score (CAF#3) | drug sensitivity score (CAF#7) | drug sensitivity score (CAF#5) | drug sensitivity score (CAF#2) | drug sensitivity score (LNCAP) | drug sensitivity score (22Rv1) | drug sensitivity score (CAF#1) | drug sensitivity score (WPMY-1) | drug sensitivity score (PF179T)
CCN(CC)Cc1ccc2cc(COC(=O)Nc3ccc(C(=O)NO)cc3)ccc2c1 [Givinostat] (tested concentration range 0.1-1000 nM) | 3.6 | 2.3 | 1.8 | 3.1 | 4.9 | 4.2 | 9.3 | 9.8 | 2.4 | 11.4 | 3.9
CN1CC[C@@H](NC(=O)Nc2ccc(C#N)cc2)C[C@@H]1c1nc2ccccc2[nH]1 [Glasdegib] (tested concentration range 0.1-1000 nM) | 0.3 | 0 | 0.1 | 0 | 0 | 0 | 0 | 0 | 0 | 0 | 0
COCCNCc1ccc(-c2cc3nccc(Oc4ccc(NC(=S)NC(=O)Cc5ccc(F)cc5)cc4F)c3s2)nc1 [Glesatinib] (tested concentration range 0.2-2500 nM) | 3.4 | 5.7 | 4.4 | 4.2 | 4.3 | 5.1 | 1.3 | 1.4 | 5.6 | 2.5 | 3.4
CC(C)C[C@H](NC(=O)[C@@H](COC(C)(C)C)NC(=O)[C@H](Cc1ccc(O)cc1)NC(=O)[C@H](CO)NC(=O)[C@H](Cc1c[nH]c2ccccc12)NC(=O)[C@H](Cc1cnc[nH]1)NC(=O)[C@@H]1CCC(=O)N1)C(=O)N[C@@H](CCCNC(=N)N)C(=O)N1CCC[C@H]1C(=O)NNC(N)=O [Goserelin] (tested concentration range 1-10000 nM) | 0.6 | 0 | 0 | 0 | 0.2 | 0 | 0 | 0 | 0 | 0 | 0
O=S(=O)(c1cccc2c(O)nccc12)N1CCCNCC1 [Hydroxyfasudil] (tested concentration range 1.9-19000 nM) | 0 | 0 | 0 | 0 | 0 | 0 | 0 | 0 | 0 | 0.3 | 0
NC(=O)NO [Hydroxyurea] (tested concentration range 100-1000000 nM) | 0 | 0.2 | 0.5 | 0 | 2.5 | 5.5 | 4.6 | 3.8 | 1.9 | 5 | 2.4
O=C(O)c1ccc(O)c2ncccc12 [IOX-1] (tested concentration range 10-100000 nM) | 0.8 | 2.6 | 0.3 | 0.4 | 0.8 | 1.7 | 6.9 | 0.9 | 0.1 | 0.8 | 3.9
O=C(O)CNC(=O)c1c(O)c2ccccc2n(Cc2ccccc2)c1=O [IOX-2] (tested concentration range 2.5-25000 nM) | 0 | 0 | 0 | 0 | 0 | 0 | 0 | 0 | 0 | 0 | 0
C=CC(=O)N1CCC[C@@H](n2nc(-c3ccc(Oc4ccccc4)cc3)c3c(N)ncnc32)C1 [Ibrutinib] (tested concentration range 0.1-1000 nM) | 0 | 0 | 0.2 | 0 | 0.7 | 0 | 0 | 0 | 0.1 | 0 | 0
C#Cc1cccc(Nc2ncnc3cc4c(cc23)OCCOCCOCCO4)c1 [Icotinib] (tested concentration range 1-10000 nM) | 0 | 0 | 2.3 | 0 | 0 | 0 | 0 | 0.7 | 0.3 | 0 | 0
CC(=O)[C@]1(O)Cc2c(O)c3c(c(O)c2[C@@H](O[C@H]2C[C@H](N)[C@H](O)[C@H](C)O2)C1)C(=O)c1ccccc1C3=O [Idarubicin] (tested concentration range 0.1-1000 nM) | 8.5 | 7.5 | 4.4 | 9.3 | 7.9 | 12.1 | 19.9 | 12.9 | 7.6 | 16.4 | 12.5
COc1cc(C(=O)O)ccc1NC(=O)[C@@H]1N[C@@H](CC(C)(C)C)[C@](C#N)(c2ccc(Cl)cc2F)[C@H]1c1cccc(Cl)c1F [Idasanutlin] (tested concentration range 1-10000 nM) | 10.6 | 11.5 | 5.1 | 10.2 | 12.5 | 13.5 | 0 | 12.7 | 12.5 | 1.9 | 16.7
CC[C@H](Nc1ncnc2[nH]cnc12)c1nc2cccc(F)c2c(=O)n1-c1ccccc1 [Idelalisib] (tested concentration range 1-10000 nM) | 3.2 | 5.6 | 4.6 | 3.9 | 3.6 | 4.5 | 10.2 | 2 | 3.4 | 1.3 | 5.4
Cc1ccc(NC(=O)c2ccc(CN3CCN(C)CC3)cc2)cc1Nc1nccc(-c2cccnc2)n1 [Imatinib] (tested concentration range 1-10000 nM) | 1.7 | 2 | 1.7 | 0.7 | 0.6 | 2.6 | 2.2 | 1.6 | 0.3 | 0.6 | 0
CC(C)Cn1cnc2c(N)nc3ccccc3c21 [Imiquimod] (tested concentration range 0.2-2500 nM) | 0 | 0 | 0.1 | 0 | 0 | 0 | 0 | 0 | 1.4 | 0 | 0
Cn1cc(C[C@@H](N)C(=O)O)c2ccccc21 [Indoximod] (tested concentration range 0.5-5000 nM) | 0 | 0 | 0 | 0 | 0.6 | 0 | 0 | 0 | 0 | 0 | 0
CCN1CCN(c2ccc(Nc3cc(N(C)C(=O)Nc4c(Cl)c(OC)cc(OC)c4Cl)ncn3)cc2)CC1 [Infigratinib] (tested concentration range 0.1-1000 nM) | 0 | 0 | 0 | 0 | 0 | 0 | 0 | 0 | 0 | 0 | 0
CC(C)NC[C@@H](C(=O)N1CCN(c2ncnc3c2[C@H](C)C[C@H]3O)CC1)c1ccc(Cl)cc1 [Ipatasertib] (tested concentration range 1-10000 nM) | 1.7 | 0.1 | 1.8 | 0 | 1.1 | 1.2 | 22.6 | 5.7 | 0.6 | 2 | 0
CCC(C)n1ncn(-c2ccc(N3CCN(c4ccc(OCC5COC(Cn6cncn6)(c6ccc(Cl)cc6Cl)O5)cc4)CC3)cc2)c1=O (stereo not given) [Itraconazole] (tested concentration range 0.5-5000 nM) | 1.6 | 0.2 | 2.7 | 1.2 | 0 | 1.2 | 5.3 | 2.7 | 0 | 4.2 | 1
N#Cc1ccnc(N2C(=O)CC[C@H]2C(=O)N(c2cncc(F)c2)[C@H](C(=O)NC2CC(F)(F)C2)c2ccccc2Cl)c1 [Ivosidenib] (tested concentration range 1-10000 nM) | 0 | 2 | 0 | 0 | 0.3 | 1.4 | 0 | 0 | 0.7 | 0.2 | 0
C/C(=C\c1csc(C)n1)[C@@H]1C[C@@H]2O[C@]2(C)CCC[C@H](C)[C@H](O)[C@@H](C)C(=O)C(C)(C)[C@@H](O)CC(=O)N1 [Ixabepilone] (tested concentration range 0.1-1000 nM) | 0 | 2.9 | 0.1 | 0.4 | 2.5 | 4.3 | 4.4 | 4.3 | 2.9 | 4.5 | 3.2
CC(C)C[C@H](NC(=O)CNC(=O)c1cc(Cl)ccc1Cl)B(O)O [Ixazomib] (tested concentration range 0.1-1000 nM) | 6 | 5.8 | 7.2 | 7.4 | 7.3 | 6.3 | 12.9 | 10.7 | 4.6 | 16.5 | 4.9
Nc1cc(COc2c(Cl)cc(C[C@H](N)C(=O)O)cc2Cl)c2oc(-c3ccccc3)nc2c1 [JPH203] (tested concentration range 0.5-5000 nM) | 0.1 | 0 | 0 | 0 | 1 | 2 | 0 | 0 | 0.1 | 0 | 0
CC(C)NC(=O)COc1cccc(-c2nc(Nc3ccc4[nH]ncc4c3)c3ccccc3n2)c1 [KD025] (tested concentration range 0.5-5000 nM) | 0 | 0.1 | 2.2 | 0.5 | 1.1 | 0.1 | 4.5 | 1 | 0 | 2.1 | 0
CC(C)[C@@H](CS(=O)(=O)C(C)C)N1C(=O)[C@@](C)(CC(=O)O)C[C@H](c2cccc(Cl)c2)[C@H]1c1ccc(Cl)cc1 [KRT-232] (tested concentration range 1-10000 nM) | 11.9 | 8.6 | 6.3 | 12.7 | 10.9 | 14.7 | 21.4 | 10 | 13.7 | 0 | 14.2
